Source: US8202870B2, “Substituted oxindole derivatives, medicaments containing the latter and use thereof” (Abbott GmbH & Co. KG, priority 2005, dated 2012)
Like-named read-outs stand apart in the source and are kept apart here.

Target: T1, human V1b receptors (Homo sapiens, UniProt P47901)
T1 construct: expressed in transfected cells; preparation V1b-3H2
T1 sequence (P47901 1-424): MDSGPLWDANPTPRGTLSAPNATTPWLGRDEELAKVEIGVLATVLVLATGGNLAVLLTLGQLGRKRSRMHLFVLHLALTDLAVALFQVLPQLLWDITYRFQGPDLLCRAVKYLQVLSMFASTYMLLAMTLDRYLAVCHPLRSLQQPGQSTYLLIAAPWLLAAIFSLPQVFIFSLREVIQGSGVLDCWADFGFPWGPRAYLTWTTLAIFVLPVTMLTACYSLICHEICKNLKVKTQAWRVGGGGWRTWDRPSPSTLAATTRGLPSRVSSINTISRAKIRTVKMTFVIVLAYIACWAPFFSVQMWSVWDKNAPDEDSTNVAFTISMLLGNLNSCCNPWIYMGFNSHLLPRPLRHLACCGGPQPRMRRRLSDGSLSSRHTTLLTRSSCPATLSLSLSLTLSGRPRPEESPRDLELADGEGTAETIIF
Experiment: Vasopressin V1b receptor binding assay
Protocol: Vasopressin V1b Receptor Binding Assay:
This DMSO predilution series was diluted 1:10 with assay buffer. The substance concentration was further diluted 1:10 in the assay mixture.
The nonspecific binding was determined with 10^−6 M AVP. Determinations in triplicate were carried out.
The affinities for the human vasopressin V1b receptor were measured, and affinity constants determined, in the above assay for the inventive examples.
The affinities of the compounds (I) of the invention for the human vasopressin V1b receptor were measured in accordance with the above assays, and the affinity constants. (Ki) were determined. Table 1 below details the V1b receptor affinity of selected compounds (++ means <50 nM and + means 50-500 nM).

[1] = membranes from CHO-K1 cells with human V1b receptors, 3H-AVP displacement, read-out: V1b Ki
[2] = read-out: Ki values, affinity for the vasopressin V1b receptor

SMILES | Ki [1] | Ki [2]
CCOc1ccccc1C1(OC(=O)N2CCN(c3cnccn3)CC2)C(=O)N(S(=O)(=O)c2cccc3cccnc23)c2ccc(C#N)cc21 (stereo not drawn) [Example 7, 5-Cyano-3-(2-ethoxyphenyl)-2-oxo-1-(quinoline-8-sulfonyl)-2,3-dihydro-1H-indol-3-yl 4-(pyrazin-2-yl)piperazine-1-carboxylate] | 50 to 500 nM | < 100 nM
CCOc1ccccc1C1(OC(=O)N2CCN(c3ncccn3)CC2)C(=O)N(S(=O)(=O)c2cccc3cccnc23)c2ccc(C#N)cc21 (stereo not drawn) [Example 6, 5-Cyano-3-(2-ethoxyphenyl)-2-oxo-1-(quinoline-8-sulfonyl)-2,3-dihydro-1H-indol-3-yl 4-(pyrimidin-2-yl)piperazine-1-carboxylate] | < 50 nM | < 100 nM
CCOc1ccccc1C1(NC(=O)N2CCN(c3ccncc3)CC2)C(=O)N(S(=O)(=O)c2cccc3cccnc23)c2ccc(C#N)cc21 (stereo not drawn) [Example 2, 4-(Pyridin-4-yl)piperazin-1-[5-cyano-3-(2-ethoxyphenyl)-2-oxo-1-(quinoline-8-sulfonyl)-2,3-dihydro-1H-indol-3-yl]carboxamide] | < 50 nM | < 100 nM
CCOc1ccccc1C1(OC(=O)N2CCN(c3ccc(C#N)cn3)CC2)C(=O)N(S(=O)(=O)c2cccc3cccnc23)c2ccc(C#N)cc21 (stereo not drawn) [Example 11, 5-Cyano-3-(2-ethoxyphenyl)-2-oxo-1-(quinoline-8-sulfonyl)-2,3-dihydro-1H-indol-3-yl 4-(5-cyanopyridin-2-yl)piperazine-1-carboxylate] | < 50 nM | < 100 nM
CCOc1ccccc1C1(OC(=O)N2CCN(c3ccncc3)CC2)C(=O)N(S(=O)(=O)c2cccc3cccnc23)c2ccc(C#N)cc21 (stereo not drawn) [Example 12, 5-Cyano-3-(2-ethoxyphenyl)-2-oxo-1-(quinoline-8-sulfonyl)-2,3-dihydro-1H-indol-3-yl 4-(pyridin-4-yl)piperazine-1-carboxylate] | < 50 nM | < 100 nM
CCOc1ccccc1C1(OC(=O)N2CCN(c3ccccn3)CC2)C(=O)N(S(=O)(=O)c2cccc3cccnc23)c2ccc(C#N)cc21 (stereo not drawn) [Example 5, 5-Cyano-3-(2-ethoxyphenyl)-2-oxo-1-(quinoline-8-sulfonyl)-2,3-dihydro-1H-indol-3-yl 4-(pyridin-2-yl)piperazine-1-carboxylate] | < 50 nM | < 100 nM

Continued, values first:

Ki [1] | Ki [2] | SMILES
< 50 nM | < 100 nM | CCOc1ccccc1C1(OC(=O)N2CCN(c3nccs3)CC2)C(=O)N(S(=O)(=O)c2cccc3cccnc23)c2ccc(C#N)cc21 (stereo not drawn) [Example 1, 5-Cyano-3-(2-ethoxyphenyl)-2-oxo-1-(quinoline-8-sulfonyl)-2,3-dihydro-1H-indol-3-yl 4-(thiazol-2-yl)piperazine-1-carboxylate]
< 50 nM | < 100 nM | CCOc1ccccc1C1(NC(=O)N2CCN(c3ccncc3)CC2)C(=O)N(S(=O)(=O)c2ccsc2)c2ccc(C#N)cc21 (stereo not drawn) [Example 3, 4-(Pyridin-4-yl)piperazin-1-[5-cyano-3-(2-ethoxyphenyl)-2-oxo-1-(thien-3-yl-sulfonyl)-2,3-dihydro-1H-indol-3-yl]carboxamide]
< 50 nM | < 100 nM | CCOc1ccccc1C1(OC(=O)N2CCN(c3ccncc3)CC2)C(=O)N(S(=O)(=O)c2ccsc2)c2ccc(C#N)cc21 (stereo not drawn) [Example 4, 5-Cyano-3-(2-ethoxyphenyl)-2-oxo-1-(thien-3-ylsulfonyl)-2,3-dihydro-1H-indol-3-yl 4-(pyridin-4-yl)piperazine-1-carboxylate]
50 to 500 nM | < 100 nM | CCOc1ccccc1C1(NC(=O)N2CCN(c3ccc(C#N)cn3)CC2)C(=O)N(S(=O)(=O)c2ccsc2)c2ccc(C#N)cc21 (stereo not drawn) [Example 10, 4-(5-Cyanopyridin-2-yl)piperazine-1-[5-cyano-3-(2-ethoxyphenyl)-2-oxo-1-(thien-3-ylsulfonyl)-2,3-dihydro-1H-indol-3-yl]carboxamide]
50 to 500 nM | – | CCOc1ccccc1C1(OC(=O)N2CCN(c3nccs3)CC2)C(=O)N(S(=O)(=O)c2ccsc2)c2ccc(C#N)cc21 (stereo not drawn) [Example 8, 5-Cyano-3-(2-ethoxyphenyl)-2-oxo-1-(thien-3-ylsulfonyl)-2,3-dihydro-1H-indol-3-yl 4-(thiazol-2-yl)piperazine-1-carboxylate]
